{"source": "patent US20250332326A1", "about": "“METHOD OF GENERATING 3D POROUS HYBRID PROTEIN NANOSCAFFOLD” (Rutgers, The State University of New Jersey, priority 2024, published 2025)", "key": {"[1]": {"test_system": "LPS-stimulated THP-1-derived macrophages", "assay": "qRT-PCR of inflammatory genes in LPS-stimulated macrophages co-cultured with scaffolds", "type": "cell-based, human", "settings": "Transwell system, 50, 100, 200 μg/mL BETi loading", "experimental": "THP-1 monocytes were purchased from ATCC® and cultured using standard protocol provided by the vendor (10% FBS in 1640 RPMI basal media supplemented with […] beta-mercaptoethanol). Media was refreshed every other day. THP-1 monocytes were cultured at a density of 100,000 to 500,000 cells per mL. When they proliferate above the density, cells were centrifuged down for media change. To convert suspension culture of THP-1 monocytes into adherent macrophages, 200 ng/ml of phorbol myristate acetate (PMA) was added into the media then split into 24 well plates at designated density (100,000 per well). PMA was treated for 1-3 days then fresh growth media without PMA was added. To stimulate the macrophages, 1,000 ng/mL lipopolysaccharide (LPS, Sigma Aldrich) was included in the media for 4 hours. Macrophages were converted from THP-1 monocytes through PMA activation. Then different scaffold conditions, including chitosan nanoscaffold, 3D-PHP nanoscaffold, and control (PBS only), as well as 3D-PHP nanoscaffold loaded with low (50 μg), medium (100 μg) and high (200 μg) dosages of BETi (JQ-1 from Tocris) drugs were added into the macrophage cultured followed by the addition of 1 μg/mL LPS for stimulation of macrophages. […] Cells were lysed with Trizol®, and then the lysates were stored at −80° C. until ready for use. […]"}, "[2]": {"test_system": "rat nucleotomy disc injury model", "assay": "Rat nucleotomy disc injury model, histological and MRI analysis 6 WPI", "type": "in vivo", "experimental": "Rats were anesthetized by injection of 2 mg/kg midazolam and 0.15 mg/kg medetomidine and butorphanol tartrate. After rats reached deep anesthesia, which was confirmed by tail pinching, posterior midline incision was performed at the Co6-7 level to expose the intervertebral disc. A no. 11 scalpel was used for the incision of posterior AF and the longitudinal cut was around 2 mm. […] After the nucleotomy, nanoscaffolds were pushed into the empty space using a micropipette tip. As controls, PBS was injected into the empty space after the nucleotomy. A heating pad was provided underneath the rats throughout the procedure and the rats were observed during recovery from the anesthesia.\nMRI was performed on rats 6 WPI using a Bruker BioSpec (9.4 T) MRI scanner in order to investigate the regeneration of discs after the nucleotomy, which can be quantified by the signal intensities and water content through T2-weighted MRI. In the MRI study, time-to-repetition was set as 5,000 ms; time-toecho was set to 30 ms; and coronal axial planes were imaged for the rat discs. MRI index and signal intensities were used for the calculation of degree of damage of coccygeal disc tissues. Region of interest (ROI) was defined as the higher intensity area in the coronal plane and ROI was quantified using Fiji (Image J). MRI index was measured with blind tests by two independent observers.\nAt 6 WPI, animals were all sacrificed and disc tissues were harvested and fixed using 10% buffered formalin for one week. Decalcification was then performed using Rapid Cal Immuno™ (BBC biochemical) for another 2 weeks. Disc tissues were then paraffin-embedded and sectioned in the coronal directions with a Leica microtome. After dewaxing, rehydration, and permeabilization by methanol, H&E, immunohistofluorescent, and Safranin-O staining were performed on different sections. For H&E staining, tissue sections were stained in a solution with Mayer's Hematoxylin for 5 minutes then washed with water and counterstained in alcoholic solution of eosin for another minute without rinsing. […] For the Safranin-O staining, tissues were stained for 10 minutes by Weigert's iron hematoxylin solution followed by extensive washing with water. Then fast green solution was used for the second staining for 5 minutes followed by brief rinsing with 1% acetic acid solution and then stained with 0.1% Safranin-O solution. Afterwards, tissues were dehydrated and cleared using identical protocol as mentioned in the H&E staining. Safranin-O staining score was based on an 8-point scale previous used for IVD tissue analysis, and if no degenerative features were found a zero score was assigned. For the immunohistofluorescent and immunohistochemistry staining of inflammatory (e.g., MMP13 and IL1β), ECM (aggrecan, Collagen II) and pain (e.g., CGRP) markers, disc tissues with fixation and decalfication were first dewaxed, sectioned into 10 μm sections, and stained with primary antibodies followed by 24 hours incubation. After washing with PBS containing 0.1% Tween 20, the secondary antibodies were added and incubated for 2 hours. Finally, the nucleus was stained with DAPI for 15 minutes. Sections were then examined under a fluorescent or colorimetric microscope with a Zeiss 880 confocal microscope and Olympus microscope, respectively. ImageJ was used for quantification in an automatic manner."}}, "data": [{"molecule": "Cc1sc2c(c1C)C(c1ccc(Cl)cc1)=N[C@@H](CC(=O)OC(C)(C)C)c1nnc(C)n1-2", "note": "[BETi, JQ1]", "values": [{"measurement": "inflammatory responses (pro- and anti-inflammatory gene expression)", "setting": "[1]", "value": "significantly lowered the inflammatory responses"}, {"measurement": "IL-1β expression (positive area, immunostaining)", "setting": "[2]", "value": "did not induce a significant reduction"}, {"measurement": "MMP-13 levels (immunostaining)", "setting": "[2]", "value": "did not suppress"}, {"measurement": "CGRP signals (pain marker, positive area ratio)", "setting": "[2]; compared to injury alone", "value": "considerably less reduction"}, {"measurement": "disc integrity / healthy disc tissue (H&E staining, MRI index)", "setting": "[2]; implanted or injected on day of nucleotomy", "value": "slightly improved the restoration of the disc structure"}, {"measurement": "up-regulation of Collagen II and aggrecan", "setting": "[2]; result in words", "value": "did not result in noticeable up-regulation"}]}]}
